These are literature values, as cited in patent US8313936B2, “Nucleic acids and polypeptides involved in the production of cryptophycin” (priority 2006, dated 2012).

The conditions of the series: assay not specified; U.S. Publication No. 20020065261.

For `COc1ccc(C[C@H]2NC(=O)/C=C/C[C@@H]([C@H](C)[C@H]3O[C@@H]3c3ccccc3)OC(=O)[C@H](CC(C)C)OC(=O)[C@H](C)CNC2=O)cc1Cl` [Cryptophycin 1], the “activity relative to other cryptophycins” value is “the most active natural compound”.
